Target: T1, 5HT2C receptors (Homo sapiens, UniProt P28335)
T1 sequence (P28335 33-458): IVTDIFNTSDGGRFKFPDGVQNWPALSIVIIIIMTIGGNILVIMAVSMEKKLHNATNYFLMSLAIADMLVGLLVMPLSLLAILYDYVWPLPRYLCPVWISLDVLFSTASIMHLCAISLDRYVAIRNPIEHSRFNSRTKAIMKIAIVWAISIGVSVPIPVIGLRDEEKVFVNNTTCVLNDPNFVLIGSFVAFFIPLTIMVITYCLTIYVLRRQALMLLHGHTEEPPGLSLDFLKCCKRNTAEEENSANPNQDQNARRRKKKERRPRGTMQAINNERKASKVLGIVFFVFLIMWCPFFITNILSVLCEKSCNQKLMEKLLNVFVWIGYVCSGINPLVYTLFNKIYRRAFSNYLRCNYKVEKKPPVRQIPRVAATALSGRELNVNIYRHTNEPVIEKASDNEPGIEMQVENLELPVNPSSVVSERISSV
Test: Human 5-HT2C functional assay in CHO-K1 cells (calcium flux, FLIPR)
Format: cell-based
Design: expressed in transfected cells; host or cells: CHO-K1 cells
Settings: CHO-K1 cells over-expressing 5HT2C, calcium flux; read-out: EC50 (μM), 5-HT2c Agonist Activity
How it was run: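 Frozen CHO-K1 cells over-expressing receptor, serum-starved overnight, loaded with Ca4 dye plus 2.5 mM probenecid for 60 min at room temperature. FLIPR fluorescence (ex 480/em 530 nm, 25° C) recorded 3 min after compound addition; 6-point 1:10 series from 10 μM, 0.2% DMSO. Response normalized to serotonin, 4-parameter fit gives EC50; Emax as % of serotonin.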

EC50: > 10 µM
Structure (SMILES): O=C1NCC2CNCCN2c2ccc(NS(=O)(=O)c3ccccc3)cc21 (stereo not shown) [Example 48, N-(7-oxo-1,2,3,4,4a,5,6,7-octahydropyrazino[1,2-a][1,4]benzodiazepin-9-yl)benzenesulfonamide]

Reference: patent publication US8546377B2 (AbbVie Inc., priority 2009, dated 2013)
